Ki data for 3 compounds are collected here from ChEMBL document CHEMBL1777760, “Inhibition studies with anions and small molecules of two novel β-carbonic anhydrases from the bacterial pathogen Salmonella enterica serovar Typhimurium” (Bioorg Med Chem Lett, 2011).

A word on the pKi: it is the Ki on a negative log10 scale, so that one unit is a factor of ten. A higher pKi goes with a small Ki.

Structures are written as SMILES. pKi: −log10 of the molar value.

Carbonic anhydrase 1, sequence (P00915 whole entry): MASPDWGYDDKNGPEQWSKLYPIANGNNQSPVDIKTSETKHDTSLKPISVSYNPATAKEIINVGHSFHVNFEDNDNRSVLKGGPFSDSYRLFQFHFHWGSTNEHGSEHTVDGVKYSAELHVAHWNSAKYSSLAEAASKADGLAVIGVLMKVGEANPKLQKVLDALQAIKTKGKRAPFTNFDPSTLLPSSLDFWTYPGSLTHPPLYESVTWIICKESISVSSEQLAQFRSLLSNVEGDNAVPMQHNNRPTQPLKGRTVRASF

This assay concerns the target Carbonic anhydrase 1 (Homo sapiens, UniProt P00915).
Regarding `CCN(CC)C(=S)S` [DITIOCARB SODIUM], the pKi was 3.10.

In turn, `NS(=O)(=O)O` [SODIUM SULFIMIDATE] gave a negative logarithm of the Ki (pKi) of 3.51. The compound `F[B-](F)(F)F.[Na+]` [SODIUM TETRAFLUOROBORATE] showed a pKi below 0.70.
